# pIC50: −log10 of the molar value.
# System: pY641-STAT6 in Peripheral Blood Mononuclear Cells (PBMC)
# Assay: MSD-pSTAT-PBMC Assay (pSTAT6, IL-4 stimulated)
# Assay type: cell-based, Human
# Settings: Homo sapiens, compound 3 hrs, then 1 ng/mL IL-4 for 10 min
# Source text: Cryopreserved Peripheral Blood Mononuclear Cells (PBMC) are from AllCells. Recombinant Human IL-4 and IL-6 are from Peprotech. Mouse monoclonal anti-STAT3 antibody, rabbit monoclonal anti-pY705-STAT3 antibody, rabbit monoclonal Anti-pY641-STAT6 antibody, and lysis buffer are from Cell Signaling Technology (CST). Mouse monoclonal anti-STAT6 antibody is from BioLegend. Assay plates, blocker, and anti-rabbit secondary antibody are from Meso Scale Discovery (MSD).
# Cryopreserved PBMCs were thawed out and allowed to recover overnight in IMDM+10% heat-inactivated FBS prior to plating 50,000 (STAT3) or 25,000 (STAT6) cells per well in 96-well U-bottom tissue culture plates. Cells were treated with compound for 3 hrs, then stimulated with 10 ng/mL IL-6 (STAT3) or 1 ng/mL IL-4 (STAT6) for 10 min. Cells were then spun down and washed with ice-cold PBS prior to lysing the cell pellet with 1× lysis buffer (CST) with 1×HALT protease and phosphatase inhibitor cocktail (Thermo). Lysates were transferred to and incubated overnight at 4° C. with shaking in QuickPlex 96-well high bind assay plates (MSD) pre-coated overnight with 30 μL per well of 0.6 μg/mL mouse monoclonal anti-STAT3 antibody (STAT3) or 2 μg/mL mouse monoclonal anti-STAT6 antibody (STAT6) in 1×PBS, and pre-blocked for 1 hour with 3% Blocker-A (MSD). Captured protein in the assay plates were then washed and probed with 25 μL per well of 0.25 μg/ml rabbit monoclonal anti-pY705-STAT3 antibody (STAT3) or […] rabbit monoclonal Anti-pY641-STAT6 antibody (STAT6) in 1% Blocker-A for 1 hour at room temperature with shaking, then washed and probed with 25 ul per well of 1 ug/ml Sulfo-TAG Labeled Goat Anti-Rabbit Antibody (MSD) in 1% Blocker-A for 1 hour at room temperature with shaking. Assay plates were then washed and 150 μL of 1× Read Buffer-T (MSD) was added to each well prior to reading on an SQ120 MSD Plate Reader. Assay signal from each sample was subtracted by the signal from unstimulated control wells and normalized to DMSO control wells. IC50 values were calculated using Graph Pad Prism Dose-Response Nonlinear Regression with variable slope. For both pSTAT3 and pSTAT6 A=≤100 nM; B=>100-1000 nM; C=>1000-3000 nM; and D=>3 μM.
row,Compound,pIC50
1,"CCCOC(=O)[C@H](C)NP(=O)(Oc1ccccc1)C(F)c1ccc2ccc(C(=O)N[C@H]3CN(C(=O)c4noc5c4CCCC5)CC[C@H]4CC[C@@H](C(=O)N5CCOCC5)N4C3=O)cc2c1 (stereo partly drawn) [Compound 425, propyl ((fluoro(7-(((5S,8S,10aR)-8-(morpholine-4-carbonyl)-6-oxo-3-(4,5,6,7-tetrahydro-benzo[d]isoxazole-3-carbonyl)decahydropyrrolo [1,2-a][1,5]diazocin-5-yl)carbamoyl)naphthalen-2-yl)methyl) (phenoxy)phosphoryl)-L-alaninate]",5.52 to 6.00
2,"CCCOC(=O)[C@H](C)NP(=O)(Oc1ccccc1)C(F)c1ccc2ccc(C(=O)N[C@H]3CN(C(=O)c4cc5ncccn5n4)CC[C@H]4CC[C@@H](C(=O)N5CCOCC5)N4C3=O)cc2c1 (stereo partly drawn) [Compound 426, propyl ((fluoro(7-(((5S,8S,10aR)-8-(morpholine-4-carbonyl)-6-oxo-3-(pyrazolo[1,5-a]pyrimidine-2-carbonyl)decahydro-pyrrolo [1,2-a][1,5]diazocin-5-yl)carbamoyl)naphthalen-2-yl)methyl) (phenoxy)phosphoryl)-L-alaninate]",< 5.52
3,"CCCOC(=O)[C@H](C)NP(=O)(Oc1ccccc1)C(F)c1ccc2ccc(C(=O)N[C@H]3CN(S(=O)(=O)CCC)CC[C@H]4CC[C@@H](C(=O)N5CCOCC5)N4C3=O)cc2c1 (stereo partly drawn) [Compound 427, propyl ((fluoro(7-(((5S,8S,10aR)-8-(morpholine-4-carbonyl)-6-oxo-3-(propylsulfonyl)decahydro-pyrrolo [1,2-a][1,5]diazocin-5-yl)carbamoyl)naphthalen-2-yl)methyl) (phenoxy)phosphoryl)-L-alaninate]",< 5.52
4,"CCCOC(=O)[C@H](C)NP(=O)(Oc1ccccc1)C(F)c1ccc2ccc(C(=O)N[C@H]3CN(C(=O)c4noc5ccc(OC)cc45)CC[C@H]4CC[C@@H](C(=O)N5CCOCC5)N4C3=O)cc2c1 (stereo partly drawn) [Compound 428, propyl ((fluoro(7-(((5S,8S,10aR)-3-(5-methoxybenzo [d]isoxazole-3-carbonyl)-8-(morpholine-4-carbonyl)-6-oxodecahydro-pyrrolo [1,2-a][1,5]diazocin-5-yl)carbamoyl)naphthalen-2-yl)methyl) (phenoxy)phosphoryl)-L-alaninate]",6.00 to 7.00
5,"CCCOC(=O)[C@H](C)NP(=O)(Oc1ccccc1)C(F)c1ccc2ccc(C(=O)N[C@H]3CN(C(=O)c4ncn5c4CCCC5)CC[C@H]4CC[C@@H](C(=O)N5CCOCC5)N4C3=O)cc2c1 (stereo partly drawn) [Compound 429, propyl ((fluoro(7-(((5S,8S,10aR)-8-(morpholine-4-carbonyl)-6-oxo-3-(5,6,7,8-tetrahydro-imidazo [1,5-a]pyridine-1-carbonyl)decahydropyrrolo [1,2-a][1,5]diazocin-5-yl)carbamoyl)naphthalen-2-yl)methyl) (phenoxy)phosphoryl)-L-alaninate]",< 5.52
6,"CCCOC(=O)[C@H](C)NP(=O)(Oc1ccccc1)C(F)c1ccc2ccc(C(=O)N[C@H]3CN(C(=O)c4noc5ccc(Cl)cc45)CC[C@H]4CC[C@@H](C(=O)N5CCOCC5)N4C3=O)cc2c1 (stereo partly drawn) [Compound 430, propyl (((7-(((5S,8S,10aR)-3-(5-chlorobenzo[d]isoxazole-3-carbonyl)-8-(morpholine-4-carbonyl)-6-oxodecahydro-pyrrolo [1,2-a][1,5]diazocin-5-yl)carbamoyl)naphthalen-2-yl)fluoromethyl) (phenoxy)phosphoryl)-L-alaninate]",≥ 7.00
7,"Cc1ccc2[nH]nc(C(=O)N3CC[C@H]4CC[C@@H](C(=O)N5C[C@H](c6cc[nH]c(=O)c6)CC56CC6)N4C(=O)[C@@H](NC(=O)c4ccc5ccc(C(F)(F)P(=O)(OCCSC(=O)CC(C)C)OCCSC(=O)CC(C)C)cc5c4)C3)c2c1 [Compound 431, S,S′-((((difluoro(7-(((5S,8S,10aR)-3-(5-methyl-1H-indazole-3-carbonyl)-6-oxo-8-(6-(2-oxo-1,2-dihydropyridin-4-y1)-4-azaspiro[2.4]heptane-4-carbonyl)dec-ahydropyrrolo [1,2-a][1,5]diazocin-5-yl)carbamoyl)naphthalen-2-yl)methyl)phosphoryl)bis(oxy))bis(ethane-2,1-diyl)) bis(3-methylbutane thioate)]",≥ 7.00
8,"Cc1ccc2[nH]nc(C(=O)N3CC[C@H]4CC[C@@H](C(=O)N5CC(c6cc[nH]c(=O)c6)CC56CC6)N4C(=O)[C@@H](NC(=O)c4ccc5ccc(C(F)(F)P(=O)(OCCSC(=O)C(C)(C)C)OCCSC(=O)C(C)(C)C)cc5c4)C3)c2c1 (stereo partly drawn) [Compound 432, S,S′-((((difluoro(7 (((5S,8S,10aR)-3-(5-methyl-1H-indazole-3-carbonyl)-6-oxo-8-(6-(2-oxo-1,2-dihydro-pyridin-4-yl)-4-azaspiro [2.4]heptane-4-carbonyl)dec-ahydropyrrolo [1,2a][1,5]diazocin-5-yl)carbamoyl)naphthalen-2-yl)methyl)phosphoryl)bis(oxy))bis (ethane-2,1-diyl))bis(2,2-dimethylpro-panethioate)]",≥ 7.00
9,"Cc1ccc2onc(C(=O)N3CC[C@H]4CC[C@@H](C(=O)N5C[C@H](c6cc[nH]c(=O)c6)CC56CC6)N4C(=O)[C@@H](NC(=O)c4ccc5ccc(C(F)(F)P(=O)(OCCSC(=O)C(C)(C)C)OCCSC(=O)C(C)(C)C)cc5c4)C3)c2c1 [Compound 434, S,S′-((((difluoro(7 (((5S,8S,10aR)-3-(5-methylbenzo [d]isoxazole-3-carbonyl)-6-oxo-8-((S)-6-(2-oxo-1,2-dihydropyridin-4-yl)-4-azaspiro[2.4]heptane-4-carbonyl)decahydro-pyrrolo [1,2-a][1,5]diazocin-5-yl)carbamoyl)naphthalen-2-yl)methyl)phosphoryl)bis (oxy))bis (ethane-2,1-diyl)) bis(2,2-dimethyl-propanethioate)]",≥ 7.00
10,"Cc1ccc2onc(C(=O)N3CC[C@H]4CC[C@@H](C(=O)N5C[C@@H](c6cc[nH]c(=O)c6)CC56CC6)N4C(=O)[C@@H](NC(=O)c4ccc5ccc(C(F)(F)P(=O)(OCCSC(=O)C(C)(C)C)OCCSC(=O)C(C)(C)C)cc5c4)C3)c2c1 [Compound 435, S,S′-((((difluoro(7 (((5S,8S,10aR)-3-(5-methylbenzo [d]isoxazole-3-carbonyl)-6-oxo-8-((R)-6-(2-oxo-1,2-dihydro-pyridin-4-yl)-4-azaspiro[2.4]heptane-4-carbonyl)decahydro-pyrrolo[1,2-a] [1,5]diazocin-5-yl)carbamoyl)naphthalen-2-yl)methyl)phosphoryl)bis(oxy))bis (ethane-2,1-diyl))bis(2,2-dimethyl-propanethioate)]",≥ 7.00
11,"Cc1ccc2onc(C(=O)N3CC[C@H]4CC[C@@H](C(=O)N5C[C@@H](c6ccn(C)c(=O)c6)CC56CC6)N4C(=O)[C@@H](NC(=O)c4ccc5ccc(C(F)(F)P(=O)(OCCSC(=O)C(C)(C)C)OCCSC(=O)C(C)(C)C)cc5c4)C3)c2c1 [Compound 436, S,S′-((((difluoro(7-(((5S,8S,10aR)-8-((R)-6-(1-methyl-2-oxo-1,2-dihydropyridin-4-yl)-4-azaspiro[2.4]heptane-4-carbonyl)-3-(5-methylbenzo [d]isoxazole-3-carbonyl)-6-oxodeca-hydropyrrolo [1,2-a][1,5]diazocin-5-yl)carbamoyl)naphthalen-2-yl)methyl)phosphoryl)bis (oxy))bis (ethane-2,1-diyl))bis(2,2-dimethyl-propanethioate)]",≥ 7.00

# From patent US20250179103A1, “6-OXODECAHYDROPYRROLO[1,2-A][1,5]DIAZOCINE AND 6-OXODECAHYDRO-4H-PYRROLO[2,1-D][1,5]THIAZOCINE DERIVATIVES AS STAT3 AND STAT6 MODULATORS FOR THE TREATMENT OF CANCER AND INFLAMMATORY CONDITIONS” (Recludix Pharma, Inc., priority 2022, published 2025)
